This note sets out measurements from patent publication EP1377579B1 (Aventis Pharmaceuticals Inc., priority 2000, dated 2002).

In general, pIC50 refers to −log10 of the IC50, conventionally taken in molar units. A word on the IC50: it is the point on the concentration scale where inhibition reaches its midpoint.

pIC50: −log10 of the molar value. Read-outs that look alike come from different tables or passages of the source.

The nature of data set [1]: Bioavailability experiment in mice given single intravenous cassette doses. As to conditions: for Cls: mice plasma, single intravenous cassette dose; for Conc. in plasma / Conc. (ng/ml) in plasma: mice; for Conc. in plasma: single 15 mg/kg intravenous cassette dose (3 mg/kg/compound), BLQ = below assay quantification limit (approximately 1 ng/ml); for Conc. (ng/ml) in plasma: Cassette #1, single 18 mg/kg intravenous cassette dose, 24 h, BLQ = below assay quantification limit.

A further data set addresses cdk4/cyclin D1 (Homo sapiens, UniProt P11802). Kind of data set: Cyclin-dependent kinase assay, cdk4/cyclin D1. It is filed as biochemical. As to conditions: cyclin D1/cdk4; GST-pRb substrate, 10 µM ATP.
The subject of data set [2] is PC-3 Human Prostate Tumors. Kind of data set: PC-3 human prostate tumor xenograft in nude mice. Also noted: unit not given here. It is filed as in vivo. In outline:
(§1)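 Subcutaneous HL-60 (5 x10^5 cells) or PC-3 (5 x 10^6 cells) xenografts in nude mice; ip dosing qd 5x/wk from 50–100 mm^3 tumors, at MTD and 1/3 MTD, ~3 wk (HL-60) or ~5 wk (PC-3). Caliper tumor volume ½(a x b2) twice weekly; body weight weekly.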
On the technique in general: Xenograft models place foreign cells or tissue in a host animal.

For a further data set, the system named is Jurkat. The experiment in a line: In vitro proliferation assay (MTT), Jurkat. The settings on record: Homo sapiens, read-out: Jurkat Leuk. (IC50 µM). The format is cell-based. In outline: (§2)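 Plate 1000–2500 cells/well, RPMI 1640 + 5 % FBS, 3 mM L-glutamine; attach overnight → compound treatment 3 days → MTT, 37 C, 2–4 hr → remove medium, solubilize in DMSO → absorbance 570 nm → IC50.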

The subject of a further data set is MDA-MB-435. Kind of data set: In vitro proliferation assay (MTT), MDA-MB-435. The format is cell-based, human. As to conditions: Homo sapiens. In outline: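 MTT viability, 3 d compound treatment; seeding 1000–2500 cells/well, overnight attachment; formazan in DMSO, A570; IC50 fitted from raw absorbance.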
Another data set concerns the target cdk2/cyclin E (Homo sapiens, UniProt P24941). Kind of data set: Cyclin-dependent kinase assay, cdk2/cyclin E. The settings on record: CDK2 IC50, nM, GST-pRb substrate, 10 µM ATP.
A further data set has as its system Colo-205. The experiment in a line: In vitro proliferation assay (MTT), Colo-205. The format is cell-based. The settings on record: Homo sapiens. The method, boiled down:
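Colo-205 cells were seeded at 1000–2500 cells/well and allowed to attach overnight, then exposed to compound for 3 days. Viable cells were measured by MTT reduction (2–4 h, 37 °C), with DMSO-solubilised dye read at 570 nm. IC50 was derived from concentration–response data.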

Another data set relates to HL-60 Human Leukemia. The experiment in a line: HL-60 human leukemia xenograft in nude mice. Also noted: key: tumor volume = ½(a × b²) from caliper diameters, in mm^3. The format is in vivo. The method, boiled down:
as §1

For the next data set, the system named is HL-60. The experiment in a line: In vitro proliferation assay (MTT), HL-60. It is filed as cell-based. The settings on record: Homo sapiens. In outline:
as §2

[3] abbreviates: 3 mg/kg/compound (15 mg/kg Total Dose), Cassette #3.
Setting [4] is: MTT assay, value (SD, n) where given.
[5] abbreviates: MDA-MB-435, MTT assay, value (SD, n) where given, read-out: MB-435 Breast (IC50 µM).
Setting [6] is: COLO 205, MTT assay, value (SD, n) where given, read-out: Colo-205 Colon (IC50 µM).
Where [7] appears, read: HL-60, MTT assay, value (SD, n) where given, read-out: HL-60 Leuk. (IC50 µM).
The mark [8] stands for this setting: 3 mg/kg/compound (15 mg/kg Total Dose), Cassette #4.
Where [9] appears, read: MDA-MB-435, read-out: MB-435 Breast (IC50 µM).
Setting [10] is: COLO 205, read-out: Colo-205 Colon (IC50 µM).
Where [11] appears, read: HL-60, read-out: HL-60 Leuk. (IC50 µM).
Setting [12] is: 3 mg/kg/compound (18 mg/kg Total Dose), Cassette #1.

cdk4/cyclin D1, sequence (P11802 whole entry): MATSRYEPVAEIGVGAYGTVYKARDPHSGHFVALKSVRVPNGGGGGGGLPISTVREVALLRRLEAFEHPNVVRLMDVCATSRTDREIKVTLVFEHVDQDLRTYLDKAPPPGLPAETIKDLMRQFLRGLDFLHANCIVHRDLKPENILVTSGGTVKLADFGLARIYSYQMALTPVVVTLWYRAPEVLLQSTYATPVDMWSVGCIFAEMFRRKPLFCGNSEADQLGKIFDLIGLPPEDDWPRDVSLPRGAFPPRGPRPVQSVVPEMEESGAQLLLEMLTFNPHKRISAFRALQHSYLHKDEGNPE
cdk4/cyclin D1, sequence (P24385 whole entry partner): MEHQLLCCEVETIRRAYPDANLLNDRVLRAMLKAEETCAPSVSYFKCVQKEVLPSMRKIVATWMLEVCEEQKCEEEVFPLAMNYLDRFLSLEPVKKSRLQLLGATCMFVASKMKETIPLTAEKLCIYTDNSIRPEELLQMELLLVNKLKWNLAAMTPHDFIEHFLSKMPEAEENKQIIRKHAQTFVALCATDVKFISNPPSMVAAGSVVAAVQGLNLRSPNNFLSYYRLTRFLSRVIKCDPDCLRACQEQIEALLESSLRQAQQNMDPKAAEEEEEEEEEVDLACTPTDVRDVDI

Molecule `Cl.Cl.N[C@H]1CC[C@H](Nc2nc(NC3CCN(C(=O)Nc4ccc(C(F)(F)F)cc4)CC3)c3ncn(C4CCCC4)c3n2)CC1` [compound 149, trans-4-[2-(4-Amino-cyclohexylamino)-9-cyclopentyl-9H-purin-6-ylamino]-piperidine-1-carboxylic acid (4-trifluoromethyl-phenyl)-amide dihydrochloride] gave a Cls in data set [1] (setting [3]) of 49.1 mL/min/kg. For the same molecule, the Conc. in plasma result in [1] (Cassette #3, 24 h) is “BLQ”. Moreover, the pIC50 on cdk4/cyclin D1 was 7.04. For the same molecule, the “PC-3 Mean Vol. ± SD” value in data set [2] (Table 4, dose 1 mg/kg ip) is listed as 1084 ± 929; in data set [2] (Table 4, dose 3 mg/kg ip) it was 2089 ± 1382. In addition, the IC50 in the data set on Jurkat (setting [4]) was determined as 0.22 µM; with MDA-MB-435 (setting [5]) it was 0.15 µM; against cdk2/cyclin E it was 51 nM; in the data set with Colo-205 (setting [6]) it was 0.09 µM; in the data set with HL-60 (setting [7]), 0.03 µM. In addition, the “HL60 Mean Vol. ± SD” value with HL-60 Human Leukemia (Table 4, dose 1 mg/kg ip) is on record as 4010 ± 2371; in the data set on HL-60 Human Leukemia (Table 4, dose 3 mg/kg ip), 2505 ± 2104.
For the molecule `Cl.Cl.N[C@H]1CC[C@H](Nc2nc(NC3CCN(S(=O)(=O)c4ccc(F)cc4)CC3)c3ncn(C4CCCC4)c3n2)CC1` [compound 106, trans-N^2-(4-Amino-cyclohexyl)-9-cyclopentyl-N^6-[1-(4-fluoro-benzenesulfonyl)-piperidin-4-yl]-9H-purine-2,6-diamine dihydrochloride], the Cls in data set [1] (setting [8]) was determined as 113.7 mL/min/kg. Besides, the Conc. in plasma result in data set [1] (Cassette #4, 8 h, Mean ± SD) is listed as “BLQ^a”; in [1] (Cassette #4, 24 h) it was “BLQ”. Also, at cdk4/cyclin D1, the negative-log IC50 (pIC50) was 7.82. Also, the “PC-3 Mean Vol. ± SD” value in [2] (Table 4, dose 1 mg/kg ip) is 1860 ± 741; in data set [2] (Table 4, dose 3 mg/kg ip), 1482 ± 906. In addition, the IC50 in the data set on Jurkat (setting [4]) turned out to be 0.19 µM; in the data set with MDA-MB-435 (setting [5]), 0.12 µM; on cdk2/cyclin E, 8 nM; in the data set with Colo-205 (setting [6]) it was 0.13 µM; with HL-60 (setting [7]) it was 0.1 µM. The “HL60 Mean Vol. ± SD” value in the data set with HL-60 Human Leukemia (Table 4, dose 1 mg/kg ip) came to 4271 ± 3851; in the data set with HL-60 Human Leukemia (Table 4, dose 3 mg/kg ip) it was 7368 ± 2592.
For the molecule `Cl.Cl.N[C@H]1CC[C@H](Nc2nc(NC3CCN(C(=O)Oc4ccc(F)cc4)CC3)c3ncn(C4CCCC4)c3n2)CC1` [compound 87, trans-4-[2-(4-Amino-cyclohexylamino)-9-cyclopentyl-9H-purin-6-ylamino]-piperidine-1-carboxylic acid 4-fluoro-phenyl ester dihydrochloride], the Cls in [1] (setting [3]) was found to be 97.4 mL/min/kg. In data set [1] (Cassette #3, 24 h), the Conc. in plasma entry is listed as “BLQ^a”. At cdk4/cyclin D1, this molecule had a negative-log IC50 (pIC50) of 7.57. In addition, the “PC-3 Mean Vol. ± SD” value in [2] (Table 4, dose 1 mg/kg ip) came to 3271 ± 2262; in data set [2] (Table 4, dose 3 mg/kg ip), 1396 ± 958. Also, the IC50 with Jurkat is 0.2 µM; in the data set with MDA-MB-435 (setting [9]) it was 0.11 µM; on cdk2/cyclin E it was 42 nM; in the data set on Colo-205 (setting [10]), 0.16 µM; in the data set with HL-60 (setting [11]), 0.05 µM. For the same molecule, the “HL60 Mean Vol. ± SD” value came to 3718 ± 2715 in the data set with HL-60 Human Leukemia (Table 4, dose 1 mg/kg ip) and 7096 ± 3079 with HL-60 Human Leukemia (Table 4, dose 3 mg/kg ip).
As for `COC(=O)c1ccccc1S(=O)(=O)N1CCC(Nc2nc(N[C@H]3CC[C@H](N)CC3)nc3c2ncn3C2CCCC2)CC1.Cl.Cl` [compound 111, trans-2-{4-[2-(4-Amino-cyclohexylamino)-9-cyclopentyl-9H-purin-6-ylamino]-piperidine-1-sulfonyl}-benzoic acid methyl ester dihydrochloride], the “Conc. (ng/ml) in plasma” value in data set [1] is reported as “BLQ”. The molecule also gave a Cls in data set [1] (setting [12]) of 34.2 mL/min/kg. In addition, the pIC50 against cdk4/cyclin D1 is 7.29. Also, the “PC-3 Mean Vol. ± SD” value in data set [2] (Table 4, dose 3 mg/kg ip) is 1083 ± 704; in [2] (Table 4, dose 10 mg/kg ip), 2114 ± 1320. Also, the IC50 was 1.05 µM with Jurkat (setting [4]); 0.43 µM in the data set with MDA-MB-435 (setting [5]); 9 nM against cdk2/cyclin E; 0.09 µM in the data set with Colo-205 (setting [6]); 0.38 µM with HL-60 (setting [7]). In addition, the “HL60 Mean Vol. ± SD” value in the data set on HL-60 Human Leukemia (Table 4, dose 3 mg/kg ip) is 3798 ± 2431; with HL-60 Human Leukemia (Table 4, dose 10 mg/kg ip), 2387 ± 1282.
In turn, `Cl.Cl.N[C@H]1CC[C@H](Nc2nc(NC3CCN(C(=O)Oc4ccc([N+](=O)[O-])cc4)CC3)c3ncn(C4CCCC4)c3n2)CC1` [compound 89, trans-4-[2-(4-Amino-cyclohexylamino)-9-cyclopentyl-9H-purin-6-ylamino]-piperidine-1-carboxylic acid 4-nitro-phenyl ester dihydrochloride] showed a Cls in data set [1] (setting [8]) of 136.5 mL/min/kg. The Conc. in plasma result in [1] (Cassette #4, 24 h) is recorded as “BLQ”. This molecule had a pIC50 on cdk4/cyclin D1 of 7.19. Moreover, the “PC-3 Mean Vol. ± SD” value in [2] (Table 4, dose 1 mg/kg ip) is 2572 ± 1052; in data set [2] (Table 4, dose 3 mg/kg ip), 866 ± 384. Besides, the half-inhibitory concentration (IC50) with Jurkat was found to be 0.07 µM; in the data set on MDA-MB-435 (setting [9]), 0.06 µM; against cdk2/cyclin E it was 42 nM; in the data set with Colo-205 (setting [10]), 0.01 µM; in the data set with HL-60 (setting [11]), 0.02 µM. Also, the “HL60 Mean Vol. ± SD” value came out at 2444 ± 2291 in the data set with HL-60 Human Leukemia (Table 4, dose 1 mg/kg ip) and 4278 ± 2801 in the data set with HL-60 Human Leukemia (Table 4, dose 3 mg/kg ip).
On to `COC(=O)c1ccc(OC(=O)N2CCC(Nc3nc(N[C@H]4CC[C@H](N)CC4)nc4c3ncn4C3CCCC3)CC2)cc1.Cl.Cl` [compound 83, trans-4-[2-(4-Amino-cyclohexylamino)-9-cyclopentyl-9H-purin-6-ylamino]-piperidine-1-carboxylic acid 4-methoxycarbonyl-phenyl ester dihydrochloride], for which the “Conc. (ng/ml) in plasma” value in data set [1] is on record as “BLQ”. For the same molecule, the Cls in [1] (setting [12]) amounted to 111.4 mL/min/kg. The molecule further showed a pIC50 on cdk4/cyclin D1 of 6.73. For the same molecule, the “PC-3 Mean Vol. ± SD” value in data set [2] (Table 5, dose 3 mg/kg ip) is reported as 899 ± 593; in [2] (Table 5, dose 10 mg/kg ip), 1426 ± 1131. The concentration for half-maximal inhibition (IC50) came out at 0.14 µM in the data set on Jurkat; 0.17 µM in the data set on MDA-MB-435 (setting [9]); 44 nM against cdk2/cyclin E; 0.07 µM in the data set on Colo-205 (setting [10]); 0.06 µM in the data set on HL-60 (setting [11]). Further, the “HL60 Mean Vol. ± SD” value with HL-60 Human Leukemia (Table 5, dose 3 mg/kg ip) is 5906 ± 2948; with HL-60 Human Leukemia (Table 5, dose 10 mg/kg ip), 4057 ± 2599.
